# Measurements reported in PubChem BioAssay AID1963983 (Molecular Pharmacology Branch, DTP, NCI, 2024).
# Several values for one entry are separate records, joined by “and”; a condition that tells them apart may be missing. Identical values can stand only once.
# System: 186277-243-T-J2-PDC multi-cell spheroid viability
# Assay: Anticancer human tumor 186277-243-T-J2-PDC patient-derived colon adenocarcinoma cell line growth inhibition [PI3K]
# Conditions: for viability, T/C: stronger effect = lower value
# From the text: Combinatorial screen of targeted agents with the PI3K inhibitors inavolisib, alpelisib, duvelisib, and copanlisib in multi-cell type tumor spheroids
# A high-throughput screen of multi-cell type tumor spheroids was designed to identify active combinations of targeted small molecules and PI3K pathway inhibitors. Complex spheroids include a stromal component modeled by human endothelial cells (HUVEC) and fibroblasts modeled by human mesenchymal stem cells (MSCs). The concentration ranges selected for each drug and investigational agent were based upon clinically achievable concentrations if the clinical Cmax of the agent was known.
# Compounds. The drugs and investigational agents: inavolisib (NSC800729), alpelisib (NSC765974), duvelisib (NSC772469), copanlisib (NSC816437), ipatasertib (NSC767898), afuresertib (NSC778305), talazoparib (NSC767125), sapanisertib (NSC764658), selumetinib (NSC741078), tovorafenib (DAY101, NSC766906), vemurafenib (NSC761431), ravoxertinib (NSC781343), sotorasib (NSC818433), MRTX1133 (NSC 836407), abemaciclib (NSC 768073), palbociclib (NSC758247), venetoclax (NSC 766270), SY5609 (NSC837396), enzalutamide (NSC755605), and darolutamide (NSC825331), were obtained from the National Cancer Institute (NCI) Developmental Therapeutics Program Chemical Repository. The FDA-approved anticancer drug set is available from the NCI Developmental Therapeutics Program. […] The stock solutions were prepared in dimethyl sulfoxide (DMSO, Sigma-Aldrich, St. Louis, MO, cat. D2650) at 800-fold the tested concentration and stored at -70 degrees C prior to their use. All drugs and investigational agents were tested over a range starting from a high concentration at or near the clinical Cmax and decreasing in half-log increments. If the clinical Cmax for an agent had not been determined, the highest concentration tested was 10 microM.
# Cell Culture. All cells were maintained in an incubator at 37 degrees C and 5% CO2 with 95% humidity. The PDC lines were cultured according to standard operating procedures established by the NCI PDMR (https://pdmr.cancer.gov/sops/default.htm). All PDCs were thawed and cultured in Matrigel-coated flasks prepared with a working solution of 1X Ham's F-12 nutrient mix, without supplementation (Invitrogen, Waltham, MA, cat. 11765054), 100 U/mL penicillin-streptomycin (Invitrogen, cat. 15140122), and 2.5% Matrigel (Corning Inc., Corning, NY, cat. 354248) for the first three passages. The 354836-022-R-J1-PDC, 475296-252-R-J1-PDC, and 997726-040-R-J2-PDC lines were cultured in 6A media, which includes advanced DMEM/F-12 (Thermo Fisher Scientific, cat. 12634028), 10 mM HEPES (Thermo Fisher Scientific, cat. 15630080), 1X GlutaMAX supplement (Thermo Fisher Scientific, cat. 35050061), 0.1 mg/mL primocin (InvivoGen, San Diego, CA, cat. ant-pm-2), 10% defined fetal bovine serum, heat inactivated (HyClone Laboratories Inc., Logan, UT, cat. SH30070.03HI), 50% L-WRN conditioned media (ATCC, cat. CRL-3276), 1.25 mM N-Acetyl-L-cysteine (Sigma-Aldrich, cat. A9165), 10 mM nicotinamide (Sigma-Aldrich, cat. N0636), 1X B-27 supplement (Thermo Fisher Scientific, cat. 17504044), 1X N-2 supplement (Thermo Fisher Scientific, cat. 17502048), and 10 microM Y-27632 dihydrochloride (Tocris Bioscience, Bristol, United Kingdom, cat. 1254). The 624824-186-R-J2-PDC line was cultured in 6C/Colon 1B media, which includes all 6A media components plus 50 ng/mL human EGF recombinant protein (Thermo Fisher Scientific, cat. PHG0311). […]
# [1] = compound alone, run of 05/09/2023
# 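Also: spheroids exposed to compounds for seven days before viability reading.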
# 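For viability, T/C in this document: 100% = DMSO vehicle control viability.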
Compound,"viability, T/C (compound 0.0316 µM)","viability, T/C (compound 0.1 µM)","viability, T/C (compound 0.316 µM)","viability, T/C (compound 1 µM)","viability, T/C (compound 3.16 µM)","viability, T/C (compound 10 µM)",IC50 (curve of compound),"viability, T/C (compound 0.000316 µM)","viability, T/C (compound 0.001 µM)","viability, T/C (compound 0.00316 µM)","viability, T/C (compound 0.01 µM)",IC50 [1],"viability, T/C (compound 0.00949 µM)","viability, T/C (compound 0.03 µM)","viability, T/C (compound 0.0949 µM)","viability, T/C (compound 0.3 µM)","viability, T/C (compound 0.949 µM)","viability, T/C (compound 3 µM)"
C=CC(=O)N1CCN(c2nc(=O)n(-c3c(C)ccnc3C(C)C)c3nc(-c4c(O)cccc4F)c(F)cc23)C(C)C1 (configuration not stated),98.1% [middle of 4 runs],92.8% [middle of 4 runs],98% [middle of 4 runs],102% [middle of 4 runs],108% [middle of 4 runs],90.6% [middle of 4 runs],> 10 µM,,,,,,,,,,,
CC(=O)c1c(C)c2cnc(Nc3ccc(N4CCNCC4)cn3)nc2n(C2CCCC2)c1=O,,,,,,,> 0.1 µM,97.1% [middle of 4 runs],91.1% [middle of 4 runs],91.5% and 103% and 102% (2×),105% [middle of 4 runs],,,,,,,
CC(C)NCC(C(=O)N1CCN(c2ncnc3c2C(C)CC3O)CC1)c1ccc(Cl)cc1 (configuration not stated),93.8% [middle of 4 runs],88.2% [middle of 4 runs],77.6% [middle of 4 runs],55.6% [middle of 4 runs],45.9% [middle of 4 runs],28.2% (2×) and 31.3% and 28.7%,1.99 µM [middle of 4 runs],,,,,,,,,,,
CC(C)n1nc(-c2ccc3oc(N)nc3c2)c2c(N)ncnc21,78.8% [middle of 4 runs],29.6% and 31.3% (2×) and 27.9%,,,,,63.7 nM [middle of 4 runs],98% [middle of 4 runs],96.1% [middle of 4 runs],99.7% [middle of 4 runs],,,,,,,,
CC(Cn1ccc(-c2ccc(C#N)c(Cl)c2)n1)NC(=O)c1cc(C(C)O)[nH]n1 (configuration not stated),95.5% [middle of 4 runs],99% [middle of 4 runs],101% [middle of 4 runs],102% (2×) and 82% and 108%,96.6% [middle of 4 runs],97.3% [middle of 4 runs],> 10 µM,,,,,,,,,,,
CC(Nc1ccc2c(c1)OCCn1cc(N3C(=O)OCC3C(F)F)nc1-2)C(N)=O (configuration not stated),,98% [middle of 8 runs],73.4% [middle of 8 runs],50.1% [middle of 8 runs],,,,,,99.1% [middle of 8 runs],100% [middle of 8 runs],,,,,,,
CC(Nc1ncnc2nc[nH]c12)c1cc2cccc(Cl)c2c(=O)n1-c1ccccc1 (configuration not stated),97.5% [middle of 8 runs],102% [middle of 8 runs],101% [middle of 8 runs],101% [middle of 8 runs],98.6% [middle of 8 runs],99.5% [middle of 8 runs],,,,,,> 10 µM,,,,,,
CC1(C)CCC(CN2CCN(c3ccc(C(=O)NS(=O)(=O)c4ccc(NCC5CCOCC5)c([N+](=O)[O-])c4)c(Oc4cnc5[nH]ccc5c4)c3)CC2)=C(c2ccc(Cl)cc2)C1,98% [middle of 4 runs],105% [middle of 4 runs],100% [middle of 4 runs],97.9% [middle of 4 runs],,,,,,,,,,,,,,
CC1(C)CCC(Nc2ncc(C(F)(F)F)c(-c3c[nH]c4c(P(C)(C)=O)c(C#N)ccc34)n2)CN1 (configuration not stated),75.1% [middle of 4 runs],55.2% [middle of 4 runs],50.5% [middle of 4 runs],59.2% [middle of 4 runs],62.6% [middle of 4 runs],0.77% [middle of 4 runs],3.64 µM [middle of 4 runs],,,,,,,,,,,
CCCS(=O)(=O)Nc1ccc(F)c(C(=O)c2c[nH]c3ncc(-c4ccc(Cl)cc4)cc23)c1F,94.8% [middle of 4 runs],89.2% [middle of 4 runs],86.2% [middle of 4 runs],86.7% [middle of 4 runs],84.1% [middle of 4 runs],6.39% [middle of 4 runs],5.39 µM [middle of 4 runs],,,,,,,,,,,
CCN1CCN(Cc2ccc(Nc3ncc(F)c(-c4cc(F)c5nc(C)n(C(C)C)c5c4)n3)nc2)CC1,106% [middle of 4 runs],130% [middle of 4 runs],146% and 156% and 145% (2×),146% [middle of 4 runs],,,> 1 µM,,,102% [middle of 4 runs],101% [middle of 4 runs],,,,,,,
CNC(=O)c1ccc(N2C(=S)N(c3ccc(C#N)c(C(F)(F)F)c3)C(=O)C2(C)C)cc1F,100% [middle of 4 runs],93.1% [middle of 4 runs],100% [middle of 4 runs],93% [middle of 4 runs],101% and 104% (2×) and 94.4%,104% [middle of 4 runs],> 10 µM,,,,,,,,,,,
COc1c(OCCCN2CCOCC2)ccc2c3n(c(=NC(=O)c4cnc(N)nc4)nc12)CCN3,73.4% [middle of 8 runs],16.7% [middle of 8 runs],6.29% [middle of 8 runs],2.87% [middle of 8 runs],,,,,,98.7% [middle of 8 runs],97.8% [middle of 8 runs],51.4 nM [middle of 8 runs],,,,,,
C[C@@H](NC(=O)c1ncnc(N)c1Cl)c1ncc(C(=O)Nc2cc(C(F)(F)F)c(Cl)cn2)s1,95.7% [middle of 4 runs],92.9% [middle of 4 runs],92.3% [middle of 4 runs],99.5% [middle of 4 runs],105% [middle of 4 runs],79.9% [middle of 4 runs],> 10 µM,,,,,,,,,,,
Cn1cnc2c(F)c(Nc3ccc(Br)cc3Cl)c(C(=O)NOCCO)cc21,,,,,,,193 nM [middle of 4 runs],,,,,,97.9% [middle of 4 runs],87.4% [middle of 4 runs],61.9% [middle of 4 runs],38% and 43.4% (2×) and 37.6%,22.7% [middle of 4 runs],9.95% [middle of 4 runs]
Cn1ncc(Cl)c1-c1cc(C(=O)NC(CN)Cc2cccc(F)c2)sc1Cl (configuration not stated),89.1% [middle of 4 runs],85% [middle of 4 runs],60.5% [middle of 4 runs],45.4% [middle of 4 runs],46.1% [middle of 4 runs],19.8% [middle of 4 runs],1.17 µM [middle of 4 runs],,,,,,,,,,,
Cn1nccc1Nc1nccc(-c2ccn(C(CO)c3ccc(Cl)c(F)c3)c(=O)c2)n1 (configuration not stated),96.2% [middle of 4 runs],102% and 103% (2×) and 105%,99.2% [middle of 4 runs],81% [middle of 4 runs],37.2% [middle of 4 runs],26.7% [middle of 4 runs],2.35 µM [middle of 4 runs],,,,,,,,,,,
Cn1ncnc1[C@H]1c2n[nH]c(=O)c3cc(F)cc(c23)N[C@@H]1c1ccc(F)cc1,,93.6% [middle of 4 runs],,,,,> 0.1 µM,97.7% [middle of 4 runs],94.7% [middle of 4 runs],97.8% [middle of 4 runs],93% [middle of 4 runs],,,,,,,
